Experimental data reported in patent US11028087B2, “2,6-disubstituted-9-cyclopentyl-9H-purines, use thereof as medicaments, and pharmaceutical compositions” (UNIVERZITA PALACKEHO V OLOMOUCI, priority 2017, dated 2021).
Each block holds one molecule with its values, some of them ahead of it.

Columns and labels:
CDK7Cyclin H/MAT1 = target: T1, CDK7Cyclin H/MAT1 (Homo sapiens, UniProt P50613); assay: Kinase inhibition assay with [γ-33P]ATP; format: biochemical; conditions: (YSPTSPS)2KK peptide, 1.5 μM ATP; read-out: IC50 values (μM) CDK7
T1 construct: purchased ProQinase GmbH

[1] = tested on: ERK1/2, STAT5 and STAT3 phosphorylation in MV4-11 cells; assay: Immunoblotting of signaling downstream of FLT3 in MV4-11 cells; format: cell-based; conditions: 1 hour (FIG. 3)
Method: (§1) To confirm kinase-inhibitory activity of novel compounds in cells, MV4-11 cells with FLT3-ITD and EOL-1 cells expressing FIP1L1-PDGFRA fusion protein were analyzed upon 1 hour treatment. Treated cells were harvested by centrifugation and homogenized in an extraction buffer (10 mM HEPES pH 7.4, 1 mM EDTA, 1 mM EGTA, 5 mM KC, 1.5 mM MgCl2, 0.5% NP40, supplemented with 1 mM DTT, 1 mM NaF, 0.1 mM Na3VO4, 1 mM PMSF, 0.5 μg/ml Leupeptin, 2 μg/ml Aprotinin) on ice for […]. The homogenates were clarified by centrifugation at 10,000 g for 30 min at 4° C., proteins were quantified by the Bradford method and then diluted to the same concentration. […] of total proteins were separated by SDS-polyacrylamide gel electrophoresis and transferred onto nitrocellulose membranes. Membranes were blocked in 5% BSA in TBS with 0.1% Tween 20 and probed overnight with specific antibodies for FLT3 (clone 8F2), phospho-FLT3 Y589/591 (30D4), phospho-FLT3 Y591 (33G6), phospho-FLT3 Y842 (10A8), phospho-FLT3 Y969 (C24D9), PDGFRA (D1E1E), phospho-PDGFRA Y849/PDGFRB Y857 (C43E9), phospho-PDGFRA Y1018, p44/42 MAPK (ERK1/2), phospho-p44/42 MAPK (ERK1/2) (Thr202/Tyr204), STAT5, Phospho-STAT5(Tyr694), STAT3 (79D7), phospho-STAT3 (Tyr705) (D3A7), MEK1/2 (D1A5), phospho-MEK1/2 (Ser217/221) purchased from Cell Signaling, USA, α-tubulin (DM1A, Sigma Aldrich, USA) and PCNA (PC-10, gifted by Dr. B. Vojtesek). […]

[2] = tested on: ERK1/2, STAT5 and STAT3 phosphorylation in EOL-1 cells; assay: Immunoblotting of signaling downstream of PDGFR in EOL-1 cells; format: cell-based; conditions: 1 hour (FIG. 4)
Method: as §1

[3] = tested on: FLT3 phosphorylation in MV4-11 xenograft; assay: MV4-11 xenograft target modulation, pFLT3 immunoblot; format: in vivo, mice
Method: (§2) Female athymic nu/nu mice (8 weeks old) were subcutaneously implanted with 5×10^6 MV4-11 cells in 1:1 mixture with Matrigel (High concentration basement membrane Matrigel, Corning) into the hind flank on day 0. Tumors were allowed to growth to the volume of 500-800 mm^3. Body weight and tumor size were recorded 3 times a week. Mice were randomized to treatment groups, 4 to 5 mice each, for target modulation studies.
(§3) Mice were sacrificed at 2 time points (2 hours and 24 hours) after treatment. Tumors were resected and mechanically disintegrated. Cells were washed twice with PBS (lx), then lysed in ice-cold lysis buffer (10 mM HEPES pH 7.4, 1 mM EDTA, 1 mM EGTA, 5 mM KCl, 1.5 mM MgCl2) supplemented with protease and phosphatase inhibitors (10 mM β-glycerolphosphate; 1 mM NaF; 0.1 mM Na3VO4; 0.1 mM PMSF; 10 μg/ml Leupeptin; 2 μg/ml Aprotinin; 1 mM DTT) and cleared by centrifugation. Samples (50 μg of total protein amount) were separated on SDS-PAGE, followed by transfer of the separated proteins to nitrocellulose membrane.

[4] = tested on: STAT5 phosphorylation in MV4-11 xenograft; assay: MV4-11 xenograft target modulation, pSTAT5 immunoblot; format: in vivo, mice; conditions: single dose 10 mg/kg intraperitoneal, after 24 hours
Method: as §2, §3

[5] = tested on: FLT3 (FLT3-ITD) in MV4-11 cells; assay: Immunoblotting of FLT3 phosphorylation in MV4-11 cells; format: cell-based; conditions: MV4-11 FLT3-ITD cells, 1 hour treatment, immunoblotting (FIG. 1)
Method: Cells were exposed for 1 hour to the indicated concentrations of 264 or 270 and then levels of phosphorylations at specific tyrosine residues of FLT3 were analyzed.
To confirm kinase-inhibitory activity of novel compounds in cells, MV4-11 cells with FLT3-ITD and EOL-1 cells expressing FIP1L1-PDGFRA fusion protein were analyzed upon 1 hour treatment. Treated cells were harvested by centrifugation and homogenized in an extraction buffer (10 mM HEPES pH 7.4, 1 mM EDTA, 1 mM EGTA, 5 mM KC, 1.5 mM MgCl2, 0.5% NP40, supplemented with 1 mM DTT, 1 mM NaF, 0.1 mM Na3VO4, 1 mM PMSF, 0.5 μg/ml Leupeptin, 2 μg/ml Aprotinin) on ice for […]. The homogenates were clarified by centrifugation at 10,000 g for 30 min at 4° C., proteins were quantified by the Bradford method and then diluted to the same concentration. […] of total proteins were separated by SDS-polyacrylamide gel electrophoresis and transferred onto nitrocellulose membranes. […]

T1 sequence (P50613 whole entry): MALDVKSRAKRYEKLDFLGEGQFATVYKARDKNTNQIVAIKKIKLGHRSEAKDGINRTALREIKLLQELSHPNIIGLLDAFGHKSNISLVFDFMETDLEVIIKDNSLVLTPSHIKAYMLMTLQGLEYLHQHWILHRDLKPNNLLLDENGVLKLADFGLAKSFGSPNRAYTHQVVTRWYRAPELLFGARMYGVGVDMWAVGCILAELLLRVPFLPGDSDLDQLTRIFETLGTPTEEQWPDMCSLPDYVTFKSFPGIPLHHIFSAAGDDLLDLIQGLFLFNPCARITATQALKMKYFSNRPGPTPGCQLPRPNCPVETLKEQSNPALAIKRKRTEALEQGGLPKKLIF
T1 sequence (P51946 whole entry partner): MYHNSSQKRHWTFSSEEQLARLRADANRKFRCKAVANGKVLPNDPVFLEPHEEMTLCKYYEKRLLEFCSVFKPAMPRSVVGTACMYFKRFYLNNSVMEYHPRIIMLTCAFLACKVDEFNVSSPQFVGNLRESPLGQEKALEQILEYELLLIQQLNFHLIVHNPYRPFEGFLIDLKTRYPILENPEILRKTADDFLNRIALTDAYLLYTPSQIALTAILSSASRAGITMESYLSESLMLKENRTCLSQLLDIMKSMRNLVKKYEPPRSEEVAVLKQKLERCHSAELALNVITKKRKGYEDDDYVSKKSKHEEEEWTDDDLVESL
T1 sequence (P51948 whole entry partner): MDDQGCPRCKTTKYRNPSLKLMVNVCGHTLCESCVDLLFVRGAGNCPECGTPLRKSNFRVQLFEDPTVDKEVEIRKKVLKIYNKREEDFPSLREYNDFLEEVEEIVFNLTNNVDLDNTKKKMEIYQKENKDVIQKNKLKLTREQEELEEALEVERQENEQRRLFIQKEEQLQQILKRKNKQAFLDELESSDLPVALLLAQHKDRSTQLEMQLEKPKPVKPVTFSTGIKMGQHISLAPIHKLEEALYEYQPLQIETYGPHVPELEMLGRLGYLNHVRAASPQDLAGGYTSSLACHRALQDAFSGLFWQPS

IC50 (CDK7Cyclin H/MAT1): 0.197 µM
Compound: CN1CC2(C1)CN(c1ccc(Nc3nc(NC4CCC(O)CC4)nc4c3ncn4C3CCCC3)cc1)C2 (centres unmarked) [Compound 7]

Compound: NC1CCC(Nc2nc(Nc3ccc(CN4CCOCC4)cc3)c3ncn(C4CCCC4)c3n2)CC1 (centres unmarked) [Compound 264]
phosphorylation of ERK1/2, STAT5 and STAT3 [1]: reduced phosphorylation
IC50 (CDK7Cyclin H/MAT1): 0.178 µM
phosphorylation of ERK1/2, STAT5 and STAT3 [2]: reduced phosphorylation
inhibition of pFLT3 in tumor ([3]; nu/nu mice, single dose 10 mg/kg intraperitoneal, 2 hours after administration): 95%
pFLT3 level in tumor at 24 hours ([3]; single dose 10 mg/kg (264 intraperitoneal, Quizartinib oral gavage), 24 hours): the inhibition sustained 24 hours
reduction of pSTAT5 level in tumor [4]: more than 95%
phosphorylation of tyrosine residues of FLT3 receptor kinase (including Y589, Y591, Y742) [5]: cellular FLT3 dephosphorylation

Compound: NCCCCNc1nc(Nc2ccc(CN3CCOCC3)cc2)c2ncn(C3CCCC3)c2n1 [Compound 270]
phosphorylation of ERK1/2, STAT5 and STAT3 [1]: reduced phosphorylation
phosphorylation of ERK1/2, STAT5 and STAT3 [2]: reduced phosphorylation
phosphorylation of tyrosine residues of FLT3 receptor kinase (including Y589, Y591, Y742) [5]: cellular FLT3 dephosphorylation
